The source of these data is PubChem BioAssay (NCI).

Holding throughout (test): NCI-60 cell line screen, 48 h
The subject of test [1] is K-562 leukemia.
The subject of test [2] is KM12 colon.
The subject of test [3] is OVCAR-4 ovarian.
For test [4], the system named is SK-MEL-2 melanoma.
The subject of test [5] is SNB-19 CNS.
In test [6] the test system is UACC-62 melanoma.
Test [7] relates to HOP-62 NSCLC.
Test [8] relates to IGROV1 ovarian.
Test [9] has as its system M14 melanoma.
Test [10] has as its system NCI-H522 lung.

Several values for one entry are separate records, joined by “and”; a condition that tells them apart may be missing. Equal entries are not always repeated.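 Interpolation was linear, between the two tested concentrations surrounding the appropriate level; five concentrations were tested over 48 hours in 96-well plates. GI50 marks 50% less growth. TGI denotes the concentration required for complete inhibition of growth.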 A value given as a limit tells only on which side of the number the result lay.

For the compound `CCC(=O)NCC1CCCN2CCCCC12` (centres undefined), the TGI in test [1], in [2], in [3], in test [4], in test [5] and in test [6] was more than 100 µM throughout.

As for `O=C(C1OC1c1ccc(Br)cc1O)C12CC3CC(CC(C3)C1)C2` (centres undefined), the TGI in test [7] was 67.9 µM; in [8], more than 100 µM; in [1], 44.8 µM; in [2], 41.4 µM; in test [9] it was 38.6 µM; in test [10], 45.2 µM. Further, the TGI in test [3] is 81.4 µM; in [5] it was more than 100 µM; in test [6], 40.6 µM.

Consider `O=S(=O)(c1ccccc1)c1cccc2c1NCCC2`, for which the TGI in test [7], in test [8], in test [1], in [2], in test [9] and in test [3] was more than 100 µM each time. In addition, the TGI in test [4] is more than 10 µM; in test [5], more than 100 µM; in test [6], more than 10 µM.

On to `c1ccc2c3[nH]c(c2c1)=Nc1ccc(cc1)-c1nc2cc(ccc2o1)N=c1[nH]c(c2ccccc12)=Nc1ccc2nc(oc2c1)-c1ccc(cc1)N=3`, for which the TGI in test [7], in test [8], in test [1], in [2], in test [9] and in [10] was more than 100 µM throughout. Further, the TGI in [3], in [5] and in test [6] was more than 100 µM each time.

Consider `COc1ncc(/C=C2\OC(=O)c3ccccc32)c(OC)n1`, for which the TGI in [7] was 66 µM; in test [8], more than 100 µM; in test [1], more than 100 µM; in test [2] it was more than 100 µM; in test [9], more than 100 µM; in test [10], more than 100 µM. In addition, the TGI in [5] was more than 100 µM.

With `Cc1cccc(Cn2c3c(c4cc(O)ccc42)C(=O)c2ccccc2C3=O)c1`, the TGI in test [7] was 40.9 µM; in [8], more than 71 µM; in test [1] it was more than 100 µM; in test [2], more than 100 µM; in test [9], more than 100 µM; in test [3], 4.57 µM. Moreover, the TGI in test [4], in test [5] and in test [6] was more than 100 µM throughout.

As for `N[C@@H](CCC(=O)NCP(=O)(O)O)C(=O)O`, the TGI in test [7], in test [8], in [1], in test [2], in test [10] and in [4] was more than 100 µM in each case. The TGI in test [5] and in test [6] was more than 100 µM in each case.

With `CC(=O)N(C(=O)CC(=O)N1N=C(c2ccccc2)C(N=Nc2ccccc2[N+](=O)[O-])C1=O)c1ccc(Cl)cc1` (centres undefined), the TGI in test [7], in [8], in test [1], in [2], in test [10] and in [3] was more than 10 µM each time. In addition, the TGI in test [4], in [5] and in test [6] was more than 10 µM in each case.

For the compound `COc1nncc2[nH]c(-c3ccccc3)cc12`, the TGI in test [7], in test [8], in test [1], in test [2], in [9] and in test [3] was more than 100 µM each time. Besides, the TGI in test [4], in test [5] and in test [6] was more than 100 µM each time.

On to `Nc1ncnc2c1[nH]c(=O)n2-c1ccccc1`, for which the TGI in test [7], in test [8], in [1], in [9], in test [3] and in test [4] was more than 100 µM throughout. In addition, the TGI in [5] and in test [6] was more than 100 µM each time.

For `COc1ccc2[nH]cc(/C=C(/C)c3ccncc3)c2c1`, the TGI in [7] is 53.8 µM; in test [8], more than 100 µM; in test [1] it was more than 100 µM; in test [2] it was more than 100 µM; in [10] it was 21.9 µM and 7.16 µM; in test [3] it was more than 100 µM. Also, the TGI is > 100 µM and 55.9 µM in [4]; more than 100 µM in test [5]; 29.8 µM and 52.9 µM in [6]. Also, the GI50 in [2] was 0.796 µM; in [10], 3.99 µM; in test [3], 17.9 µM; in test [4] it was 58.1 µM; in test [5], 15.5 µM.

For `CCOC(=O)Nc1sc2c(c1C#N)CCCC2`, the TGI in [7], in test [8], in [1], in test [2], in [10] and in test [3] was more than 100 µM in each case. The TGI in [4], in test [5] and in test [6] was more than 100 µM throughout.

With `Nn1c(-c2ccccc2)n[nH]c1=O`, the TGI in [7], in test [8], in test [2], in test [9], in test [10] and in test [3] was more than 100 µM throughout. The TGI in test [4], in test [5] and in test [6] was more than 100 µM in each case.

For the compound `NC(=O)C(=Cn1c(=S)[nH]c2ccc([N+](=O)[O-])cc21)C(N)=O`, the TGI in [7], in [8], in [2], in [9], in test [3] and in [4] was more than 100 µM throughout. The TGI in test [5] and in test [6] was more than 100 µM each time.

Take `COc1ccc2cc1Oc1ccc(cc1)C[C@H]1c3cc(c(OC)cc3CCN1C)Oc1c(O)c(OC)cc3c1[C@H](C2)N(C)CC3`: the TGI in [7] was 65.7 µM; in test [8] it was 65.8 µM; in [1] it was 83.5 µM; in test [2], 42.6 µM; in test [10], 55.7 µM; in test [3] it was 58.1 µM. For the same compound, the TGI in test [4] worked out at 48.5 µM; in test [5], 134 µM; in test [6], 44.7 µM.

Turning to `COc1ccc(-n2c(C)nc3ccc(NC(=S)Nc4ccccc4)cc3c2=O)cc1`, the TGI in [7], in [8], in [1], in test [2], in [10] and in test [3] was more than 100 µM throughout. For the same compound, the TGI in test [4], in [5] and in test [6] was more than 100 µM each time.

Regarding `O=C1C=C[C@@H](COC2OC(CO)C(O)C(O)C2O)O1` (some centres undefined), the TGI was more than 100 µM in test [7]; 34.9 µM and 83.1 µM in test [8]; 23.6 µM and > 100 µM in [1]; 11.6 µM and 17.4 µM in test [2]; 5.61 µM and 18.4 µM in [10]; 28.2 µM and 33.6 µM in test [3]. In addition, the TGI in [4] is 36.3 µM and 32.8 µM; in [5], 53.2 µM; in [6], 12 µM and 22.6 µM. In addition, the GI50 was 14.2 µM in test [8]; 3.16 µM in [2]; 2.22 µM in test [10]; 13.2 µM in test [3]; 15.3 µM in [4]; 20.6 µM in test [5]. Moreover, in [6], the GI50 was 3.03 µM.

For `O=C(OCc1ccccc1)N1CCNCCN(C(=O)OCc2ccccc2)CCNCC1`, the TGI in test [7] was 33.4 µM; in test [8] it was more than 100 µM; in test [1] it was more than 100 µM; in [2], 66.1 µM; in [10], 34.5 µM; in [3], more than 100 µM. Moreover, the results for the TGI in test [4], in test [5] and in test [6] were 42.3 µM, more than 100 µM and 70.3 µM, respectively.

As to `CC1(C)O[C@H]2OC(CO[Si](C)(C)C(C)(C)C)C(N=[N+]=[N-])[C@H]2O1` (some centres undefined), the TGI in test [7] turned out to be 34.1 µM; in test [8], 21.8 µM; in test [1], 29.1 µM; in test [2], 34.2 µM; in test [9], 43.9 µM; in test [3], 71.7 µM. For the same compound, the TGI in test [4] came to 32 µM; in [5] it was 36.1 µM; in test [6], 52.6 µM.

Consider `Oc1ccc2c(c1)c1c(n2CCN2CCOCC2)-c2ccccc2CC1`, for which the TGI was 59.2 µM in test [7]; 57.6 µM in test [8]; more than 100 µM in test [1]; 35.8 µM in [2]; 57.3 µM in [9]; 55.1 µM in [4]. For the same compound, the TGI in test [5] was more than 100 µM; in test [6], 48.1 µM.

With `COC(=O)[C@@H](O)[C@](O)(CCC(C)C)C(=O)O[C@@H]1C(OC)=C[C@]23CCCN2CCc2cc4c(cc2[C@H]13)OCO4`, the TGI was determined as 4.75 µM in test [7]; 20 µM in test [8]; 23 µM in test [1]; 13 µM in test [2]; 2.99 µM in [10]; 5.77 µM in test [3]. The TGI in test [4] was 9.15 µM; in [5], 2.67 µM; in test [6], 29.4 µM.

Turning to `CC1(C(=O)O)CCC2(C)CCC3(C)C(=CC(=O)C4C5(C)CCC(O)C(C)(C)C5CCC43C)C2C1` (centres undefined), the TGI in test [2] was 37.3 µM; in test [9], more than 100 µM; in test [10], 50.1 µM; in [3] it was more than 100 µM; in test [4], 92.4 µM; in [5] it was more than 100 µM. Moreover, the TGI in test [6] stood at 42.5 µM.
